Test results published in US7795286B2 (L'Oreal, priority 2004, dated 2010).

Tested on: keratinocytes
Experiment: Active photoprotection towards UVA-induced oxidative stress on keratinocytes (DCFH-DA fluorescent probe)
Format: cell-based
Settings: for % of fluorescence relative to the control cells exposed to UVA, TEST 1 / % of fluorescence relative to the control cells exposed to UVA, TEST 2 / % of fluorescence relative to the control cells exposed to UVA, TEST 3 / % of fluorescence relative to the control cells exposed to UVA, Mean: 24 h pre-incubation; for % of fluorescence relative to the control cells exposed to UVA, TEST 1 / % of fluorescence relative to the control cells exposed to UVA, TEST 2 / % of fluorescence relative to the control cells exposed to UVA, TEST 3: DCF fluorescence after UVA; for % of fluorescence relative to the control cells exposed to UVA, Mean: mean of 3 tests
Procedure: The technique for evaluating the photo-protection is performed according to a well-known method (J. of Photochemistry and Photobiology B: Biology 57 (2000) 102-112 TOBI et al: Glutathione modulates the level of free radicals produced in UVA irradiated cells). This technique uses a fluorescent probe as a marker of the global intracellular oxidative stress, 2′,7′-dichlorofluoresceine diacetate (DCFH-DA).
The use of DCFH-DA as an oxidative stress marker is based on its physicochemical properties. It is a non-ionic apolar molecule capable of diffusing across cell membranes. Once inside the cell, DCFH-DA is hydrolysed by intracellular esterases to a non-fluorescent compound: DCFH or 2,7-dichlorofluoresceine. In the presence of activated oxygen species, DCFH is rapidly oxidized to a highly fluorescent compound: DCF or 2,7-dichlorofluoresceine.
At confluence, the keratinocytes are incubated in the presence of the compound of Example 1 for 24 hours at 37° C., 5% CO2, in the culture medium, according to a dose effect (3 concentrations). • 2. Incorporation of DCFH-DA
The keratinocytes, pretreated with the test compound, are rinsed and then incubated in the presence of DCFH-DA in the dark. • 3. Exposure to UVA
After this incubation, the DCFH-DA solution is removed and the cells are then exposed to UVA.
Comment: an unexposed control plate is kept in darkness at room temperature.
The fluorescence of the DCF is evaluated immediately after the exposure to UVA, by spectro-fluorimetry (excitation: 480 nm; emission: 530 nm). • 5. Results:
The results are expressed in Table 1 below, as a % of fluorescence relative to the control cells exposed to UVA.
The test described in Example 6 above was performed under the same conditions on R-2-oxothiazolidine-4-carboxylic acid (Compound A) and on an alkyl derivative thereof, described in patent U.S. Pat. No. 6,004,543 (Compound B).

`O=C1N[C@H](C(=O)O)CS1` [Compound A, R-2-oxothiazolidine-4-carboxylic acid, reference compound] was tested, and the “Measurement of the intracellular Red/Ox balance: % reduction in the fluorescence of the DCFH probe” value (at 5 mM) was 16% at 5 mM.

With `CCOC(=O)C1CSC(=O)N1` (stereo not drawn) [Compound B, reference compound] the “Measurement of the intracellular Red/Ox balance: % reduction in the fluorescence of the DCFH probe” value (at 7 mM, with dose effect) was 37% at 7 mM with dose effect.

With `C[Si](C)(C)COC(=O)[C@@H]1CSC(=O)N1` [Example 1] the “% of fluorescence relative to the control cells exposed to UVA, TEST 1” value (100 μM) was 95%, the “% of fluorescence relative to the control cells exposed to UVA, TEST 2” value (100 μM) was 81% and the “% of fluorescence relative to the control cells exposed to UVA, TEST 3” value (100 μM) was 75%. For the same compound, the “% of fluorescence relative to the control cells exposed to UVA, Mean” value (100 μM) was 84%, the “% of fluorescence relative to the control cells exposed to UVA, TEST 1” value (250 μM) was 82% and the “% of fluorescence relative to the control cells exposed to UVA, TEST 2” value (250 μM) was 71%. The “% of fluorescence relative to the control cells exposed to UVA, TEST 3” value (250 μM) was 70%, the “% of fluorescence relative to the control cells exposed to UVA, Mean” value (250 μM) was 74% and the “% of fluorescence relative to the control cells exposed to UVA, TEST 1” value (500 μM) was 75%. For the same compound, the “% of fluorescence relative to the control cells exposed to UVA, TEST 2” value (500 μM) was 70%, the “% of fluorescence relative to the control cells exposed to UVA, TEST 3” value (500 μM) was 58% and the “% of fluorescence relative to the control cells exposed to UVA, Mean” value (500 μM) was 68%. The “Measurement of the intracellular Red/Ox balance: % reduction in the fluorescence of the DCFH probe” value (at 500 μM, with dose effect) was “approximately 32%”.
